The values below come from patent publication US20210361578A1, “MEK1/2 INHIBITOR-LOADED MICROPARTICLE FORMULATION” (University of Iowa Research Foundation, priority 2020, published 2021).

The subject of series [1] is PVN neuronal excitation and sympathetic nerve activity. The settings on record: cited from earlier work.
A short description of series [2]: In vitro drug release of PD98059-loaded microparticles (Examples 1/3, centrifugation and medium replacement). The settings on record: PD98059 powder; DPBS with 0.4% w/v Tween 80, 37° C. The series is classed as physicochemical. Here is the method:
A weighed amount of the microparticles was suspended in 5 ml of the release medium (Dulbecco's phosphate buffered saline, DPBS, Life Science, Waltham, Mass.) that contains 0.4% w/v Tween 80 at an amount equivalent to 0.065 mg microparticles in 50 ml tube (n=3). The tubes were placed in an orbital shaker (New Brunswick Scientific, Edison, N.J.) operating at 300 rpm and 37° C. At pre-determined time points, the tube was centrifuged (1000×g for 5 min) and the whole volume of the release medium (5 ml) was removed and replaced completely with fresh medium in which the pellet was re-suspended. The concentration of PD98059 was measured in the samples using the HPLC method described below. The standard curve range was 0.125-10 μg/ml, and the r^2 value was 0.9998.
An Agilent Infinity 1100 HPLC (Santa Clara, Calif.) was used for to analyze PD98059 content and release of the microparticles. […] The flow rate used was 1 ml/min at room temperature, and the wavelength at which PD98059 was detected at 275 nm.
A weighed amount of the microparticles was suspended in 5 ml of the release medium (Dulbecco's phosphate buffered saline, DPBS, Life Science, Waltham, Mass.) that contains 0.4% w/v Tween 80 at an amount equivalent to 0.065 mg microparticles in 50 ml tube (n=3). […] The concentration of PD98059 was measured in the samples using the HPLC method described below. […]

Another series deals with MEK. The settings on record: Dudley et al.; cited from earlier work.
The subject of series [3] is plasma levels of norepinephrine; PVN p-ERK1/2. Conditions: HF rats, cited from earlier work.
Series [4] is described as follows: Pharmacokinetics and organ levels of PD98059 following IV injection in healthy rats. The series is classed as in vivo. Here is the method: 1: Pharmacokinetics of PD98059. Rats were anaesthetized using urethane and a canula was inserted in the femoral vein. A solution of PD98059 dissolved in 10% Tween 80 in sterile 1× DPBS at a concentration of 0.5 mg/ml (total volume 2 ml) was administered slowly by intravenous infusion. After 5, 15, 30, 60, 180, and 360 minutes, blood samples were withdrawn from rats. Major organs (liver, kidney, brain, and heart) were collected from rats after 1 and 3 hours (n=3/time point).
All blood samples were collected into 4 ml BD Vacutainer® blood collection tubes (K2-EDTA, Becton, Dickinson, and Company, Franklin Lakes, N.J.). Plasma samples were collected by centrifugation (3,300×g, 15 min), and frozen at −80° C. until analyzed. Plasma samples were thawed on ice, and a volume of 100 μl of plasma was transferred to a 15 ml tube, and spiked with 15 μl of the internal standard (IS) solution (10 μg/ml of 7-hydroxyfiavone in methanol). Collected organs were rinsed in PBS, then frozen at −80° C. For organs, a portion of each organ (200-400 mg) was accurately weighed and homogenized (Fisher Brand Bead Mill 4 Homogenizer, Hampton, N.H.) in 250 μl of 1× DPBS using 20-25 2.5 mm ceramic beads per sample, and spiked with 15 μl of the internal standard (IS) solution. One ml of cold acetonitrile was added to 100 μl of plasma samples or 400 μl of the tissue homogenate and vortexed for 1 min. The samples were kept on ice for 15 min to precipitate the proteins, then the tubes were centrifuged (4° C., 3,300×g, 10 min) and the supernatant was collected, and evaporated under nitrogen stream.
In the case of protocols 1 and 2, the residue in each tube was then dissolved in the mobile phase (described in the HPLC section below), centrifuged (12,000×g, 5 min), and the supernatant was injected in the HPLC and analyzed by the method described below. A standard curve was prepared using plasma and tissues collected from naive rats. These plasma or tissue homogenate samples were spiked with 15 μl of the IS solution as mentioned above, in addition to 15 μl of standard solutions of PD98059 in methanol at different concentrations. Pharmacokinetic parameters were calculated using PK Solver.
An Agilent HPLC workstation was used for sample analysis (Agilent Infinity 1100, Santa Clara, Calif.) that consisted of an Agilent quaternary pump, automatic injection port, and Agilent diode array detector (Agilent Corporation, Santa Clara, Calif.). A RP-C18 column was used for analysis (Waters Symmetry, 5 μm pore size, 4.6 mm×150 mm, Milford, Mass.). The mobile phase consisted of methanol: water 70:30 with 0.1% v/v trifluoroacetic acid, and the flow rate was 1 ml/min at room temperature. The detection wavelength was set to 275 nm.

Entries after “also recorded” stand apart in the source; their conditions may differ.

For the compound `COc1cccc(-c2cc(=O)c3ccccc3o2)c1N` [PD98059], the heart rate result in series [1] (HF rats, 1-h ICV infusion, compared to SHAM or untreated animals) was “significantly decreased”. For the same compound, the “PVN neuronal excitation and (renal) sympathetic nerve activity” value in series [1] (heart failure rats, 1-hour ICV infusion) is “decreased; also recorded: inhibited”. The “time for 80% of the unencapsulated drug to dissolve in the release medium” value in series [2] was 24 h. The “in vitro activity of MEK once PD98059 was removed from the medium” value in the series with MEK is “fully and instantaneously restored”. In addition, the plasma norepinephrine levels result in series [3] (ICV infusion for 4 weeks) is on record as “significant reduction; also recorded: reduced; also recorded: normalized”. The “PVN p-ERK1/2” value in series [3] (long term ICV infusion) is given as “successfully decreased”. Further, in series [4] (IV injection of 1 mg of PD98059 in solution, non-compartmental analysis), the AUC0-t turned out to be 2378.7 ng·h/mL. In addition, in series [4] (healthy rats, IV 1 mg), the “brain PD98059 level at 1 hour” value was “approximately 410 ng/g” and the “brain PD98059 level at 3 hours” value is about 76 ng/g. The “drug levels in major organs (liver, kidney, brain, heart)” value in series [4] (healthy rats, IV 1 mg, 1 and 3 hours) is “drug levels in the liver and kidney were comparatively higher than those in the brain and heart”. Moreover, in series [4] (rats), the “crossing of the blood brain barrier” value is given as “a significant portion of the drug crossed the blood brain barrier; also recorded: found to cross the blood brain barrier” and the elimination half-life entry is “above 1 hour”. Also, the “elimination half-life in plasma” value in series [4] (rats, IV injection of PD98059 solution, 1 mg) came out at 1.22 h. The “pharmacokinetic model that fits the data” value in series [4] (rats, IV, PK Solver) is 2-compartment model.
